Results published in patent US6784173B2, “Aromatic dicarboxylic acid derivatives” (Hoffmann-La Roche Inc., priority 2001, dated 2004).

The molecules below were run on HT-29 cells (human colon carcinoma cell line) (assay: MTT tetrazolium dye proliferation assay on HT-29 cells). Conditions: MTT assay after 5 days of compound exposure, 30 uM to 1.5 nM, read-out: IC50 HT29.
Type: cell-based
Method: MTT (tetrazolium dye proliferation assay) is widely used for the quantitative determination of cytotoxic effects or in vitro chemosensitivity of tumor cells. The assay is based on the cleavage of the yellow tetrazolium salt MTT to purple formazan crystals by metabolic active cells. For details, see Rubinstein, L. V., et al., J. Natl. Cancer Inst. 82 (1990) 1113-1118.
The following procedure was performed: HT-29 cells (human colon carcinoma cell line) were cultivated in RPMI 1640, 2.5% FCS, 2 mM Glutamine, 100 u/ml Penicillin, 100 ug/ml Streptomycin. For the assay the cells were seeded in 384 well plates, 900 cells per well, in the same medium The next day compounds (dissolved 10 mM in DMSO) were added in various concentrations ranging from 30 uM to 1.5 nM. After 5 days the MTT assay was done mainly according to the instructions of the manufacturer (Cell proliferation kit I, MTT, form Roche Molecular Biochemicals). In brief: MTT labeling reagent was added to a final concentration of 0.5 mg/ml, added and incubated for 4 hrs at 37 C., 5% CO2. During this incubation time purple formazan crystals are formed. After addition of the solubilization solution (20% SDS in 0.02 M HCl) the plates were incubated overnight at 37 C, 5% CO2. After careful mixing plates were measured in Victor 2 (scanning multiwell spectrophotometer, Wallac) at 550 nm.
A decrease in number of living cells results in a decrease in the total metabolic activity in the sample. The decrease directly correlates to the amount of purple colour resulting from the solubilization of the purple formazan crystals. Determination of IC50 was done using XL-fit.

Structure (SMILES)	IC50
O=C(NO)c1ccc(C(=O)NCc2cc(C(F)(F)F)cc(C(F)(F)F)c2)s1 [Example 15, No. 93, Thiophene-2,5-dicarboxylic acid 2-(3,5-bis-trifluoromethyl-benzylamide) 5-hydroxyamide]	0.05 µM
CC(CCc1ccccc1)NC(=O)c1ccc(C(=O)NO)s1 (centres unmarked) [Example 15, No. 128, Thiophene-2,5-dicarboxylic acid 2-hydroxyamide 5-[(1-methyl-3-phenyl-propyl)-amide]]	0.02 µM
CC(C)(C)c1ccc(CNC(=O)c2ccc(C(=O)NO)s2)cc1 [Example 15, No. 98, Thiophene-2,5-dicarboxylic acid 2-(4-tert-butyl-benzylamide) 5-hydroxyamide]	0.07 µM
O=C(NO)c1ccc(C(=O)NCCC(c2ccccc2)c2ccccc2)s1 [Example 15, No. 90, thiophene-2,5-dicarboxylic acid 2-[(3,3-diphenyl-propyl)-amide] 5-hydroxyamide]	0.14 µM
O=C(NO)c1ccc(C(=O)NCCOc2ccccc2)s1 [Example 15, No. 104, Thiophene-2,5-dicarboxylic acid 2-hydroxyamide 5-[(2-phenoxy-ethyl)-amide]]	0.04 µM
O=C(NO)c1ccc(C(=O)NCc2cccc(Cl)c2)s1 [Example 4, Thiophene-2,5-dicarboxylic acid 2-(3-chloro-benzylamide) 5-hydroxyamide]	0.14 µM
O=C(NO)c1ccc(C(=O)NCc2cccc(Br)c2)s1 [Example 15, No. 94, Thiophene-2,5-dicarboxylic acid 2-(3-bromo-benzylamide) 5-hydroxyamide]	0.07 µM
Cc1cc(C)cc(CNC(=O)c2ccc(C(=O)NO)s2)c1 [Example 5, Thiophene-2,5-dicarboxylic acid 2-(3,5-dimethyl-benzylamide) 5-hydroxyamide]	0.05 µM
O=C(NO)c1ccc(C(=O)NCc2ccc(Cl)c(Cl)c2)s1 [Example 15, No. 139, Thiophene-2,5-dicarboxylic acid 2-(3,4-dichloro-benzylamide) 5-hydroxyamide]	0.17 µM
O=C(NO)c1ccc(C(=O)NCc2ccc(C(F)(F)F)cc2)s1 [Example 2, Thiophene-2,5-dicarboxylic acid 2-hydroxyamide 5-(4-trifluoromethyl-benzylamide)]	0.11 µM
CC(C)CCCC(C)NC(=O)c1ccc(C(=O)NO)s1 (centres unmarked) [Example 15, No. 81, thiophene-2,5-dicarboxylic acid 2-[(1,5-dimethyl-hexyl)-amide] 5-hydroxyamide]	0.03 µM
